Assay results: patent US20140275169A1, “Combination Therapies for Enhancing Protein Degradation” (The Regents of the University of Michigan, priority 2013, published 2014)

How the values were obtained:
[1] = target: Usp14 (Homo sapiens, UniProt P54578); assay: Inhibition of Usp14 (statement in overview); assay type: biochemical
[2] = test system: endogenous total tau; assay: Degradation of endogenous total tau in primary cortical rat neurons, SDS-PAGE immunoblot with tau-5 antibody; assay type: cell-based; details: 24 hours, individual compounds (lanes 2 and 3) and combination (lane 4)
Procedure: These independently duplicated experiments were carried out in primary cortical rat neurons for 24 hours. Tau was detected after SDS-PAGE immunoblot analysis, using the tau-5 antibody.
The combined effect of Usp14 inhibitors and Hsp70 inhibitors on tau levels is shown to be synergistic in this experiment in that this effect (lane 4) is greater than the sum of the individual effects of these compounds (lanes 2 and 3). To cite one example, in FIG. 5A the individual effects are approximately 8% and 2% for Usp14 and Hsp70 inhibitors, respectively, while the combined effect is approximately 71%, far greater than the expected additive effect of approximately 10%.
This experiment was carried out in primary cortical rat neurons for 48 hours. Tau was detected after SDS-PAGE immunoblot analysis, using the tau-5 antibody.
This experiment was carried out in primary cortical rat neurons for 24 hours. Tau was detected after SDS-PAGE immunoblot analysis, using the tau-5 antibody.

Sequence of Usp14 (P54578 whole entry, species assumed): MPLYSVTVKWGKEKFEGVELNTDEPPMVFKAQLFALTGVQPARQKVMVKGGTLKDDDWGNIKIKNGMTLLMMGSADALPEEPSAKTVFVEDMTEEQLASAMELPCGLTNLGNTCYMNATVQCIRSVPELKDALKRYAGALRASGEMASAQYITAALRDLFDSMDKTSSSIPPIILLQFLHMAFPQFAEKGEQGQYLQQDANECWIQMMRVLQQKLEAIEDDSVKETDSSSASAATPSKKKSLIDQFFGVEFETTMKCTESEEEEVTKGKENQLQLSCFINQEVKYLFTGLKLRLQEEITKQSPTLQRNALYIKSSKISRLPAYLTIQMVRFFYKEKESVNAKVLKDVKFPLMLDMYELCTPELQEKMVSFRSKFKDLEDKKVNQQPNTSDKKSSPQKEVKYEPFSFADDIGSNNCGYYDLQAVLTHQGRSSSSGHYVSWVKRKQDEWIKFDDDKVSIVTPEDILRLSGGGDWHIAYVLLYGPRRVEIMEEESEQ

Structure (SMILES)	Usp14 inhibition, qualitative [1]	effect on tau levels (FIG. 5A) [2]
Cc1cc(C(=O)CN2CCCC2)c(C)n1-c1ccc(F)cc1 [IU1, 1-(1-(4-fluorophenyl)-2,5-dimethyl-1H-pyrrol-3-yl)-2-(pyrrolidin-1-yl)ethanone]	inhibitor of Usp14	–
Cc1cc(C(=O)CN2CCCCC2)c(C)n1-c1ccc(Cl)cc1 [IU1-47]	more potent variant of IU1	approximately 8%
